# Patent US20120059037A1, “SUBSTITUTED PYRIDINE DERIVATIVES AND THEIR MEDICAL USE” (NEUROSEARCH A/S, priority 2009, published 2012)
# Molecular target: T1, human Kv7.2+3 (Homo sapiens, UniProt O43525+O43526)
# T1 construct: expressed in transfected cells; host or cells: HEK293
# Assay: FLIPR-based characterization of Kv7.2+3 modulators (thallium influx)
# Type: cell-based
# Conditions: HEK293 cells over-expressing human Kv7.2+3; for EC50: Tl+ influx, BTC-AM, FLIPR, relative to retigabine control responses; for Efficacy: maximal response relative to the reference (retigabine) response
# Protocol: This experiment determines the ability of a test compound to modulate the activity of Kv7.2+3 channels heterologously expressed in human HEK293 cells. The ability is determined relative to retigabine. The activity is determined using a standard thallium (I) sensitive assay, e.g. using a fluorometric method in a Fluorescent Image Plate Reader (FLIPR) as described below in more detail.
# Full concentration/response curves are generated and EC50 values are calculated based on max values. EC50 values (Effective Concentration) represent the concentration of the test substance, at which 50% of the channel activity is obtained when compared to retigabine control responses. Maximal response determined relative to the reference (retigabine) response is calculated.
# Human HEK293 cells over-expressing human Kv7.2+3 are grown in culture medium (DMEM supplemented with 10% foetal bovine serum), in polystyrene culture flasks ([…]) in a humidified atmosphere of 5% CO2 in air, at 37° C. Cell confluence should be 80-90% on day of plating. Cells are rinsed with 4 ml of PBS (phosphate buffered saline) and incubated 2 min with 1 ml of Trypsin-EDTA. After addition of 25 ml of culture medium cells are re-suspended by trituration with a 25 ml pipette.
# The cells are seeded at a density of ˜3×10^6 cells/ml (25 μl/well) in black-walled, clear bottom, 384-well plates pre-treated with 0.01 g/l poly-D-lysin (20 μl/well for ≧30 min). Plated cells were allowed to proliferate for 24 h before loading with dye.
# BTC-AM (50 mg, Invitrogen) is added 25.5 μl DMSO. The BTC-AM stock solution (2 mM) is diluted to a final concentration of 2 μM in Cl^− free assay buffer (in mM: 140 Na^+-gluconate, 2.5 K^+-gluconate, 6 Ca2^+-gluconate, 1 Mg^2+ gluconate, 5 glucose, 10 HEPES, pH 7.3) containing 2 μM ouabain, 2 mM amaranth and 1 mM tartrazine.
# The culture medium is aspirated from the wells, the cells are washed thrice in Cl^− free assay buffer, and 25 μl of the BTC-AM loading solution is added to each well. The cells are incubated at 37° C. for 60 min.
# After the loading period, the Tl^+-sensitive BTC fluorescence signal is measured over time using a FLIPR.
# • Temperature: Room temp. • First addition: 12 μl test or control compound after 15 sec at a rate of 30 μl/sec and starting height of 20 μl • Second addition: 12 μl stimulus buffer (Cl^− free assay buffer supplemented with 1 mM Tl2SO4, 5 mM K2SO4 as well as the quenchers amaranth (2 mM) and tartrazine (1 mM)) is added after an additional 3 minutes at a rate of 30 μl/sec and starting height of 30 μl • Reading intervals: First sequence—3 sec×5, 2 sec×24 and 5 sec×25 • Second sequence—1 sec×5, 2 sec×24 and 5 sec×36 Addition plates (compound plate and stimulus plate) are placed in positions 2 and 3, respectively. Cell plates are placed in position 1 and run using the “KCNQ (two additions)” program. FLIPR will then take the appropriate measurements in accordance with the interval settings above. Fluorescence obtained after stimulation is corrected for the mean basal fluorescence (in Cl^− free assay buffer).
# Full concentration/response curves are generated and EC50 values (“Effective Concentration”; the concentration at which 50% of the channel activity is obtained when compared to retigabine control responses) are calculated based on peak values. Maximal response determined relative to the reference (retigabine) response is calculated.
EC50,Efficacy,Compound
66 nM,100%,"O=C(Cc1cc(F)cc(F)c1)Nc1ccc(NCc2ccc(Cl)nc2)nc1N1CCCC1 [Compound 1.1, N-{6-[(6-Chloro-pyridin-3-ylmethyl)-amino]-2-pyrrolidin-1-yl-pyridin-3-yl}-2-(3,5-difluoro-phenyl)-acetamide]"
20 nM,108%,"O=C(Cc1cc(F)cc(F)c1)Nc1ccc(NCc2cccnc2)nc1N1CCCC1 [Compound 1.2, 2-(3,5-Difluoro-phenyl)-N-{6-[(pyridin-3-ylmethyl)-amino]-2-pyrrolidin-1-yl-pyridin-3-yl}-acetamide]"

Compound,EC50,Efficacy
"CC(C)(C)CC(=O)Nc1ccc(NCc2ccc(Cl)nc2)nc1N1CCCC1 [Compound 1.3, N-{6-[(6-Chloro-pyridin-3-ylmethyl)-amino]-2-pyrrolidin-1-yl-pyridin-3-yl}-3,3-dimethyl-butyramide]",66 nM,100%
